Data: ChEMBL document CHEMBL5338729, “E3 Ligases Meet Their Match: Fragment-Based Approaches to Discover New E3 Ligands and to Unravel E3 Biology” (J Med Chem, 2023)
Each block holds one compound with its values, some of them ahead of it.

What was measured:
Protein cereblon = Protein cereblon (Homo sapiens, UniProt Q96SW2); test: Binding affinity to CRBN (unknown origin) assessed as inhibition constant by FRET assay
[1] = biological target: von Hippel-Lindau disease tumor suppressor (Homo sapiens, UniProt P40337); test: Binding affinity to VHL (unknown origin) assessed as dissociation constant by isothermal titration calorimetry assay
Chain of von Hippel-Lindau disease tumor suppressor (P40337 whole entry): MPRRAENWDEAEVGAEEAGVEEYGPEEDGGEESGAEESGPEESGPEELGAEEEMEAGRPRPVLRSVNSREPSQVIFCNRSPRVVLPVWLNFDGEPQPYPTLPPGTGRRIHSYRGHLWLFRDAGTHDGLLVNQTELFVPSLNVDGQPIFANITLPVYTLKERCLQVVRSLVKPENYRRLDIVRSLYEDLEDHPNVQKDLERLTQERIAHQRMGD

[2] = Binding affinity to RING1B-BMI1 (unknown origin); set-up: species or system Homo sapiens
[3] = biological target: T1, E3 ubiquitin-protein ligase RNF31 (Homo sapiens, UniProt Q96EP0); test: Binding affinity to HOIP (unknown origin) assessed as dissociation constant
T1 sequence (Q96EP0 whole entry): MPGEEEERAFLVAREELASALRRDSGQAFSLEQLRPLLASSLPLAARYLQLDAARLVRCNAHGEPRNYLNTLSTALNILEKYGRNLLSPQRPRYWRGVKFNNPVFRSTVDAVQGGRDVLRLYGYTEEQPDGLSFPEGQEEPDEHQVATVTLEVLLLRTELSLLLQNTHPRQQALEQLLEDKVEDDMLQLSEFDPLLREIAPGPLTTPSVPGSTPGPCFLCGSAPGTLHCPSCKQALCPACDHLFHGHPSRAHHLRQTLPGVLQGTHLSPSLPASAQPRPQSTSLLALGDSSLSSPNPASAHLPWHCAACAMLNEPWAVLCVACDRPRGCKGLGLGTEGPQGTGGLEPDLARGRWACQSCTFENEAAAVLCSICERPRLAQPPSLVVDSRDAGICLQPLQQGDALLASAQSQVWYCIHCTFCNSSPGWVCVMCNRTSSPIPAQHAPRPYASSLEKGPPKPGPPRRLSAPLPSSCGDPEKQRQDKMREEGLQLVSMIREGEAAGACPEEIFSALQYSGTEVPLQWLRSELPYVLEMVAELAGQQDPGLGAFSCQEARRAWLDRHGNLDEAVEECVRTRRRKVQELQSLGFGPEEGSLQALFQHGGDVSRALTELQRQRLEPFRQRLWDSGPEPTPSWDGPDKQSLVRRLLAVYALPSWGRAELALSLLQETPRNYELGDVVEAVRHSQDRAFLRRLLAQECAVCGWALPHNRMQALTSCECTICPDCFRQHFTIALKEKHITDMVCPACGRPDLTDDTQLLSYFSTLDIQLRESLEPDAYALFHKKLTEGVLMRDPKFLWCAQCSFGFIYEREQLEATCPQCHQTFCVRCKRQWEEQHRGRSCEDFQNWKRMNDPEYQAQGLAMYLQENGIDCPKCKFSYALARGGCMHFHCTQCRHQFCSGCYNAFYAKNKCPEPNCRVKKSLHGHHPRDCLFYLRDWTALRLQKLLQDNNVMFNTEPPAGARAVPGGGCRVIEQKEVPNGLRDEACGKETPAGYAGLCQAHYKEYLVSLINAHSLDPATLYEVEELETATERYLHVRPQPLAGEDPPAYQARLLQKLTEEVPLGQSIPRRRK

[4] = Inhibition of RING1B-BMI1 (unknown origin); set-up: species or system Homo sapiens
[5] = biological target: T2, E3 ubiquitin-protein ligase RNF4 (Homo sapiens, UniProt P78317); test: Inhibition of human recombinant RNF4 incubated for 30 mins by SDS-PAGE based densitometry
T2 sequence (P78317 whole entry): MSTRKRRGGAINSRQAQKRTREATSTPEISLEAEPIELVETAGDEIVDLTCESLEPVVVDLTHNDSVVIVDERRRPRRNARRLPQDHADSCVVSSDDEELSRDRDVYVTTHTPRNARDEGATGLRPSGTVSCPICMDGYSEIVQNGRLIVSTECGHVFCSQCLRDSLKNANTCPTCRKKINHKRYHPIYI

Chain of Protein cereblon (Q96SW2 whole entry): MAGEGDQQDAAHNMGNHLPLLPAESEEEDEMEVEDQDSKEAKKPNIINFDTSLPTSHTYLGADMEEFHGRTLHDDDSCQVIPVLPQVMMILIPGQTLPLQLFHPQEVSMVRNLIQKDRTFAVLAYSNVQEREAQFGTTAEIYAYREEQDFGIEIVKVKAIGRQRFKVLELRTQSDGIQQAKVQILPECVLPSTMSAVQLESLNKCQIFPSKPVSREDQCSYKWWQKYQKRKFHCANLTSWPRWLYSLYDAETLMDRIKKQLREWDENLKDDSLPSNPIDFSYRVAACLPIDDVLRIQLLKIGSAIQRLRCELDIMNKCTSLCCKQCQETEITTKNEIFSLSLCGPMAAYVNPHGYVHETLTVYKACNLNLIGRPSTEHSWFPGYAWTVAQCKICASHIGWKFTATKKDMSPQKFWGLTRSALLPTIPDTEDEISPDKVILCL

Ki (Protein cereblon): 77 µM
Structure (SMILES): O=C1CCN1

Ki (Protein cereblon): 146 µM
Structure (SMILES): O=C1CCCCN1

Ki (Protein cereblon): 43 µM
Structure (SMILES): O=C1CNC(=O)N1 [HYDANTOIN]

Ki (Protein cereblon): 88 µM
Structure (SMILES): O=C1CCNC(=O)N1

Ki (Protein cereblon): 4.3 µM
Structure (SMILES): O=C1CCC(=O)N1 [SUCCINIMIDE]

The remaining lines, values behind:

Structure (SMILES): OCc1ccc(-n2cccc2)cc1
Kd [1]: 5000 µM

Structure (SMILES): O=C(O)c1ccc(-c2ccccc2)s1
Kd [2]: ~7000 µM

Structure (SMILES): O=c1cc[nH]c(=O)[nH]1 [URACIL]
Ki (Protein cereblon): 35 µM

Structure (SMILES): COC(=O)/C=C/CNC(=O)c1cc2c([nH]c1=O)CCC2
Kd [3]: > 400 µM

Structure (SMILES): CC(C)c1c(-c2cccc3[nH]ccc23)[nH]c(C(=O)O)c1-c1c(Cl)ccc2[nH]ccc12
Kd [2]: 2.8 µM
IC50 [4]: 1.6 µM

Structure (SMILES): O=C(CCl)Nc1ccc(Oc2ccccc2)cc1
IC50 [5]: 10 µM

Structure (SMILES): CCc1c(-c2cccc3[nH]ccc23)[nH]c(C(=O)O)c1-c1ccccc1Cl
Kd [2]: 11.5 µM
IC50 [4]: 12 µM

Structure (SMILES): CC(=O)NC(N)=O
Ki (Protein cereblon): 522 µM

Structure (SMILES): O=C1CCSc2ccc(Cl)cc21
Kd [1]: 6700 µM
